# Data as given in article PMC4279419, “Angiostatic, tumor inflammatory and anti-tumor effects of CXCL4^47–70 and CXCL4L1^47–70 in an EGF-dependent breast cancer model” (Oncotarget, 2014).
# Where no end group is shown, it is not given here.
# How the values were obtained:
# [1] = tested on: F4/80^+ cells in MDA-MB-231 tumors; assay: Flow cytometry of intratumoral F4/80^+ cells; assay type: in vivo, mice; conditions: 2.5 μg intratumoral 3×/week; n=9; control 6.85 ± 1.18% (n=10)
# Experimental: For flow cytometry, single cell suspensions were prepared from tumor biopsies using a MACS dissociator (Myltenyi Biotec, Bergisch Gladbach, Germany) and a mixture of collagenase A and dispase. Remaining cell clumps were removed by passing the cell suspension through a nylon cell strainer (70 μm mesh). Remaining red blood cells were lysed in ACK lysis buffer (0.15 M NH4Cl, 0.1 mM Na2EDTA, 10 mM KHCO3; pH = 7.2). Subsequently monocytes were identified by flow cytometry using specific antibodies, namely rat anti-mouse F4/80-PE antibody (eBiosciences, San Diego, CA).
# CD204 = assay: qPCR tumor CD204 mRNA (M2 marker); assay type: in vivo, murine; conditions: 2.5 μg intratumoral 3×/week; 2^−ΔΔCT
# Experimental: (§1) The RNeasy Mini Kit (QIAGEN, Venlo, the Netherlands) was used for tumor mRNA extraction. The extracted mRNA was then converted to cDNA making use of the High Capacity cDNA Reverse Transcription Kit (Applied Biosystems, Foster City, CA). Quantitative polymerase chain reactions (qPCR) based on the TaqMan principle were conducted to compare gene expression between samples. Primers and probes (Table 2; Integrated DNA Technologies, Haasrode, Belgium), were diluted to the prescribed working concentrations in RNase-free water and added to the reaction mix in a MicroAmp® fast optical 96-well reaction plate (Applied Biosystems), together with 50 ng sample cDNA per reaction. The actual thermocycler program consisted of 2 minutes on 50 °C, 10 minutes on 95 °C and 40 cycles of 15 seconds on 95 °C followed by 1 minute on 60 °C. Analysis of the obtained CT was based on the 2^−ΔΔC^T method, opting for 18S ribosomal 1 RNA as an internal control.
# muCCL5 = assay: qPCR stromal CCL5 mRNA; assay type: in vivo, murine; conditions: 2.5 μg intratumoral 3×/week; 2^−ΔΔCT; p=0.020, n=7
# Experimental: as §1
# IFN-γ = assay: qPCR tumor IFN-γ mRNA; assay type: in vivo, murine; conditions: 2.5 μg intratumoral 3×/week; 2^−ΔΔCT
# Experimental: as §1
# IL-12 = assay: qPCR tumor IL-12 mRNA (M1 marker); assay type: in vivo, murine; conditions: 2.5 μg intratumoral 3×/week; 2^−ΔΔCT; not reaching statistical significance
# Experimental: as §1
Substance,intratumoral F4/80^+ cells [1] [%],CD204 mRNA versus control (CD204),stromal CCL5 expression versus vehicle (muCCL5),IFN-γ mRNA versus vehicle (IFN-γ),IL-12 mRNA versus control (IL-12)
"CXCL4L1^47–70: synthetic human carboxy-terminal peptide restricted to the last 24 amino acids of CXCL4L1, Fmoc chemistry",7.74 ± 1.35,,,,
"CXCL4^47–70: synthetic human carboxy-terminal peptide restricted to the last 24 amino acids of CXCL4, Fmoc chemistry (NGRKICLDLQAPLYKKIIKKLLES; not fully specified (N-terminus))",,only a modest increase,significantly upregulated,significantly elevated expression,only modestly increased
